Values of other authors as cited in US9125814B2, “Biocompatible crosslinked hydrogels, drug-loaded hydrogels and methods of using the same” (Angiotech Pharmaceuticals, Inc., priority 2008, dated 2015).

With `CCCCN1CCCCC1C(=O)Nc1c(C)cccc1C` (racemic) [racemic bupivacaine, 1-butyl-N-(2,6-dimethylphenyl)piperidine-2-carboxamide] as the compound, how does the pKa read?
Its pKa is about 8.1.
